Patent US20100093861A1, “TREATMENT OF INSULIN RESISTANCE OR DISEASES ASSOCIATED WITH INSULIN RESISTANCE” (Stevia ApS, priority 2006, published 2010)

What was measured:
Foxa2 = assay: Affymetrix gene chip analysis of KKAy islets: Foxa2; format: in vivo, mice; conditions: ISV vs. KKAy control islets, 9 weeks
Experimental: (§1) cRNA preparation and in vitro transcription: In total 6 Affymetrix arrays MOE430 2.0 probe array cartridge were used i.e. for analysis of 3 replicas for the KKAy control group and the ISV group, respectively. Each of the 6 samples consisted of pooled RNA from 3-4 KKAy mice. Preparation of target for hybridization was prepared from 340 ng of total RNA using MessageAmp™ II aRNA Amplification Kits (Ambion), according to the manufacturers instructions. Arrays were hybridised and scanned as described elsewhere (Kruhoffer et al., 2005).

Akt1 = assay: Affymetrix gene chip analysis of KKAy islets: Akt1; format: in vivo, mice; conditions: ISV vs. KKAy control islets, 9 weeks
Experimental: as §1

Nkx2-2 = assay: Affymetrix gene chip analysis of KKAy islets: Nkx2-2; format: in vivo, mice; conditions: ISV vs. KKAy control islets, 9 weeks
Experimental: as §1

GLUT2 [1] = assay: Relative real time RT-PCR in islets of KKAy mice (Example 3): GLUT2; format: in vivo; conditions: 9 weeks
Experimental: Islets were isolated by the collagenase digestion technique. In brief, the animals were anesthetized with pentobarbital (50 mg/kg intraperitoneally) and midline laparotomy was performed. The pancreas was retrogradely filled with 3 mL ice-cold Hanks balanced salt solution (([HBSS] Sigma Chemical, St Louis, Mo.) supplemented with 0.3 mg/ml collagenase Boehringer Mannheim GmbH, Germany). The pancreas was subsequently removed and incubated for 19 minutes at 37° C. After rinsing in HBSS, the islets were handpicked under a stereomicroscope and immediately transferred to a tubes containing 1 ml Trizol (Gibco/Invitrogene, Calsbad, Calif., USA). The islets isolated from the NMRI mice were incubated overnight at 37° C. and 95% normal atmosphere/5% CO2 in 10 ml RPMI 1640 containing 11.1 mmol/L glucose supplemented with penicillin G and 100 μg/mL streptomycin (all Gibco/Invitrogene, Calsbad, Calif., USA).
For each group, islets from 3-4 mice (180-200 islets) were pooled in 1 ml Trizol reagent (Gibco/lnvitrogene, Calsbad, Calif., USA) before RNA purification. Total RNA was extracted according to the manufactures' instructions. RNA was quantified by measuring absorbance at 260 and 280 nm. The quality of the RNA was checked by the Agilent 2100 bioanalyzer (Agilent, Santa Clara, USA). […]

Somatostatin = assay: Affymetrix gene chip analysis of KKAy islets: Somatostatin; format: in vivo, mice; conditions: ISV vs. KKAy control islets, 9 weeks
Experimental: as §1

GLUT2 [2] = assay: Affymetrix gene chip analysis of KKAy islets: GLUT2; format: in vivo, mice; conditions: ISV vs. KKAy control islets, 9 weeks
Experimental: as §1

In the case of `C[C@@]12CC[C@@H]3[C@@](CC[C@H]4[C@@]3(C)CCC[C@@]4(C)C(=O)O)(CC1=O)C2` (single isomer, unassigned; ent-16) [ISV, ent-16-ketobeyeran-19-oic acid], the “array: increased expression in Foxa2” value (Foxa2) is reported as 1.9 fold, the “array: change of Akt1 expression” value (Akt1) is reported as “no changes” and the “array: increased expression in Nkx2-2” value (Nkx2-2) is reported as 2.3 fold. The “up regulation of the GLUT2 gene transcript” value (GLUT2 [1]; RT-PCR) was “more than 3 fold”, the “increased expression of GLUT2, ISV group vs. control group” value (GLUT2 [1]; normalized to 18S rRNA) was 201% and the “array: increased expression in Somatostatin” value (Somatostatin) was 2.3 fold. For the same compound, the “array: change of GLUT2 expression” value (GLUT2 [2]) was “upregulation”.
